Key:
Oryctolagus cuniculus [1] = organism: Oryctolagus cuniculus; assay: Tested for its ability to block 5-HT2A induced contractile responses in rabbit isolated aorta; assay type: functional
[2] = biological target: 5-hydroxytryptamine receptor 1D (Cavia porcellus) (UniProt Q60484); assay: Oral effective dose against hypothermia in the guinea pig caused by stimulation of central 5-hydroxytryptamine 1D receptors by the agonist GR-46611; assay type: functional
[3] = biological target: 5-hydroxytryptamine receptor 1D (Cavia porcellus) (UniProt Q60484); assay: Compound at oral dose of 45 mg/kg was tested for percent inhibition against 5-hydroxytryptamine 1D receptor causes hypothermia in guinea pig; assay type: functional, organism-based; parameters: dose 45 mg/kg
Canis familiaris = organism: Canis familiaris; assay: Tested in vitro for its ability to block 5-HT induced contractile responses in dog isolated saphenous vein; assay type: functional, Canis lupus familiaris
[4] = biological target: 5-hydroxytryptamine receptor 1D (Cavia porcellus, UniProt Q60484); assay: In vitro binding affinity towards 5-hydroxytryptamine 1D receptor in guinea-pig striatum in presence of BMY-7378 and mesulergine; assay type: tissue-based
Sequence of 5-hydroxytryptamine receptor 1D (Q60484 whole entry): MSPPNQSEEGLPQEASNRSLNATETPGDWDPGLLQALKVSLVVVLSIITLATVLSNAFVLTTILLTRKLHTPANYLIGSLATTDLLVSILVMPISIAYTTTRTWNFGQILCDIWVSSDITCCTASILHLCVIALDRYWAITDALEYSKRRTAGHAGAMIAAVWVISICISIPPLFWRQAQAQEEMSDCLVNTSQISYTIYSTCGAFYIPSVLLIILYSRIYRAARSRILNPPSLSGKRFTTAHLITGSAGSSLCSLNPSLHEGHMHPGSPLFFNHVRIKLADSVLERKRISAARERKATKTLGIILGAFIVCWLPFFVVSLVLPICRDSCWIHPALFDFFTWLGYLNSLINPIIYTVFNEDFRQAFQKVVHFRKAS

[5] = biological target: T1, 5-hydroxytryptamine receptor 1A (Rattus norvegicus, UniProt P19327); assay: Binding affinity towards 5-hydroxytryptamine 1A receptor in rat hippocampus using [3H]8-OH-DPAT; assay type: tissue-based
T1 sequence (P19327 whole entry): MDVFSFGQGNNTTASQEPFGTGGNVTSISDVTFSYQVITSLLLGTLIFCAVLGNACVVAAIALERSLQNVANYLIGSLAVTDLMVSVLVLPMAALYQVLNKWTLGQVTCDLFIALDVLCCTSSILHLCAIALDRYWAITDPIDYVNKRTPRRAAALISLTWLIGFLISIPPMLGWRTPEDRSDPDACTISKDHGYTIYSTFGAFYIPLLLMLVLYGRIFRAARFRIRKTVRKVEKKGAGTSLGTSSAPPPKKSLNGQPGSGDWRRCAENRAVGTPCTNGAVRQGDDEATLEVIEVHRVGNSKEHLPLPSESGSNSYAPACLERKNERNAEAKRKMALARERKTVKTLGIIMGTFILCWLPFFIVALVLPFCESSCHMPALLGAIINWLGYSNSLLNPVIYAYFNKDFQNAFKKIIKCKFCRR

[6] = biological target: 5-hydroxytryptamine receptor 1D (Cavia porcellus) (UniProt Q60484); assay: Oral effective dose against hypothermia in the guinea pig caused by stimulation of central 5-hydroxytryptamine 1D receptors by the agonist GR-46611; range is 2-9; assay type: functional
Oryctolagus cuniculus [7] = organism: Oryctolagus cuniculus; assay: Tested in vitro for its ability to block 5-HT2A induced contraction of rabbit isolated aorta; assay type: functional
[8] = biological target: T1, 5-hydroxytryptamine receptor 1A; assay: Binding affinity towards 5-hydroxytryptamine 1A receptor in rat hippocampus with [3H]8-OH-DPAT; assay type: tissue-based
[9] = biological target: 5-hydroxytryptamine receptor 1D (Cavia porcellus) (UniProt Q60484); assay: Compound at 50 mg/kg was tested for the inhibition of hypothermia in the guinea pig caused by stimulation of central 5-hydroxytryptamine 1D receptors by the agonist GR-46611; assay type: functional, organism-based; parameters: dose 50 mg/kg
[10] = biological target: 5-hydroxytryptamine receptor 1D (Cavia porcellus) (UniProt Q60484); assay: Compound at 45 mg/kg was tested for the inhibition of hypothermia in the guinea pig caused by stimulation of central 5-hydroxytryptamine 1D receptors by the agonist GR-46611; assay type: functional, organism-based; parameters: dose 45 mg/kg
[11] = biological target: 5-hydroxytryptamine receptor 1D (Cavia porcellus) (UniProt Q60484); assay: Compound at 3 mg/kg was tested for the inhibition of hypothermia in the guinea pig caused by stimulation of central 5-hydroxytryptamine 1D receptors by the agonist GR-46611; assay type: functional, organism-based; parameters: dose 3 mg/kg
[12] = biological target: 5-hydroxytryptamine receptor 1B (Rattus norvegicus, UniProt P28564); assay: In vitro binding affinity towards 5-hydroxytryptamine 1B receptor in rat striatal membrane with [125I]- iodocyanopindolol; assay type: cell membranes, Striatum
Sequence of 5-hydroxytryptamine receptor 1B (P28564 whole entry): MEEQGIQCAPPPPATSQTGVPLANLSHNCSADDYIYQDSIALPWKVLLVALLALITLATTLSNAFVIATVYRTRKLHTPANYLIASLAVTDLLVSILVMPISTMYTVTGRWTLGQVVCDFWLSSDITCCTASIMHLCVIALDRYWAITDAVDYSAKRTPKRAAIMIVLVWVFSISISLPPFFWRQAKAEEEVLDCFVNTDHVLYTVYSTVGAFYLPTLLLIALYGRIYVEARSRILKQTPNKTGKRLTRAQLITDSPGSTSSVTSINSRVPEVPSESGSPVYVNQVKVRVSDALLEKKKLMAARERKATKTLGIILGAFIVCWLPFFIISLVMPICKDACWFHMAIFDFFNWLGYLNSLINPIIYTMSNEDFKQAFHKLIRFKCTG

[13] = biological target: 5-hydroxytryptamine receptor 1D (Cavia porcellus) (UniProt Q60484); assay: Oral effective dose against hypothermia in the guinea pig caused by stimulation of central 5-hydroxytryptamine 1D receptors by the agonist GR-46611;range is 0.2-1.2; assay type: functional
[14] = biological target: 5-hydroxytryptamine receptor 1D (Cavia porcellus) (UniProt Q60484); assay: Oral effective dose against hypothermia in the guinea pig caused by stimulation of central 5-hydroxytryptamine 1D receptor by the agonist GR-46611; assay type: functional

Sequence of 5-hydroxytryptamine receptor 1D (Cavia porcellus) (Q60484 whole entry): as the sequence (Q60484 whole entry) above

Row | Compound | pKB (Oryctolagus cuniculus [1]) | ED50 [2] [mg/kg] | pKB (Canis familiaris) | Ki [4] [nM] | Ki [5] [nM] | pKB (Oryctolagus cuniculus [7]) | other results
1 | COc1ccc(C(=O)Nc2ccc(-c3ccc(C=O)cc3C)cc2)cc1CCCN(C)C | 6.3 | 45 | 8.4 | 6.31 | 5010 | – | inhibition [3]: < 30%
2 | COc1ccc(NC(=O)c2ccc(-c3ccncc3)cc2)cc1N1CCN(C)CC1 | – | – | 8 | 5.01 | – | 6.5 | ED50 [6]: 5 mg/kg; Ki [8]: 1260 nM
3 | COc1ccc(C(=O)Nc2ccc(-c3ccncc3)cc2)cc1CCCN(C)C | 6.3 | – | 7.8 | 10 | 20000 | – | inhibition [9]: < 30%
4 | COc1ccc(C(=O)Nc2ccc(-c3ccncc3)cc2)cc1N1CCN(C)CC1 | – | > 45 | 7.9 | 3.16 | – | 6.5 | –
5 | COc1ccc(C(=O)Nc2ccc(-c3ccc(CO)cc3C)cc2)cc1CCCN(C)C | 5.9 | 45 | 8.5 | – | – | – | inhibition [10]: 52%
6 | COCCOC(=O)c1ccc(-c2ccc(NC(=O)c3ccc(OC)c(CCCN(C)C)c3)cc2)c(C)c1 | 6.2 | 45 | 8.4 | 3.16 | – | – | inhibition [10]: 55%; inhibition [11]: 66%
7 | CCOc1ccc(NC(=O)c2ccc(OC)c(CCCN(C)C)c2)cc1 | 6.2 | – | 6.9 | – | – | – | –
8 | COc1ccc(C(=O)Nc2ccc(-c3ccc(-c4noc(C)n4)cc3C)cc2)cc1N1CCN(C)CC1 | – | – | 8.2 | 6.31 | 1260 | 7.8 | Ki [12]: 6.31 nM; ED50 [13]: 0.5 mg/kg
9 | COc1ccc(NC(=O)c2ccc(-c3ccc(C(=O)N(C)C)cc3C)cc2)cc1N1CCN(C)CC1 | – | – | 9.2 | 5.01 | 251 | 4.9 | Ki [12]: 6.31 nM; ED50 [14]: 0.67 mg/kg
10 | COc1ccc(C(=O)Nc2ccc(-c3ccc(C(=O)O)cc3C)cc2)cc1CCCN(C)C | 5.7 | – | 8.7 | 31.6 | > 10000 | – | –
